Biological target: T1, Estrogen Receptor (ERα) in MCF-7 human ductal carcinoma breast cell line (Homo sapiens, UniProt P03372)
T1 construct: endogenous in cells; host or cells: MCF-7
T1 sequence (P03372 1-595): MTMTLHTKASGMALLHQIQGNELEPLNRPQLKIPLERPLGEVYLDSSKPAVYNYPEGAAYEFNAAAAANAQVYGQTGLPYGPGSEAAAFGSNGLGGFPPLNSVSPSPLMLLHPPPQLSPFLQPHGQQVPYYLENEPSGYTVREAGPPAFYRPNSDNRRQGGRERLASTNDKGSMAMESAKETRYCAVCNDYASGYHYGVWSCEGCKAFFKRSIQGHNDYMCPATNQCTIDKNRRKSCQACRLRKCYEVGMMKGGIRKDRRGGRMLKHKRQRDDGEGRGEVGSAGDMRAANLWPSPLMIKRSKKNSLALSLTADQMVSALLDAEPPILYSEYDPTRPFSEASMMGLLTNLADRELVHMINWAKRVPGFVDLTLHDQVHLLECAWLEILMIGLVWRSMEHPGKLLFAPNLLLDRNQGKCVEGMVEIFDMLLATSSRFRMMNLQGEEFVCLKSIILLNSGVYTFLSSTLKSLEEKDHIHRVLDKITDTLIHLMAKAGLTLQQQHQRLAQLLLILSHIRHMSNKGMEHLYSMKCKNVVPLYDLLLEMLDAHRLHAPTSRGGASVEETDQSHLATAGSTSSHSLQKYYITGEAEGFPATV
Experiment: MCF-7 ER degradation assay (cell based immuno-fluorescence)
Conditions: MCF-7 cells; for ER degradation ≥ 90% at 0.3 μM: ER degradation by fulvestrant at 0.3 μM is defined as 100%; for DC50: 18-22 hours incubation, 50% reduction of ERα expression, single experiment or average of two or more, read-out: MCF-7 ER degradation IC50
In short: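 MCF-7 human ductal carcinoma breast cells were seeded at 3.75×10^4 cells per mL (40 μL per well) in 384 well plates with phenol red free DMEM containing 2 mM L-Glutamine and 5% (v/v) Charcoal/Dextran treated foetal calf serum. After overnight culture, compounds were acoustically dispensed, incubated 18-22 hours, then cells were formaldehyde-fixed and immunostained for ERα.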

Structure (SMILES)	ER degradation ≥ 90% at 0.3 μM	DC50 [pM]
Cc1ncsc1-c1ccc(CNC(=O)[C@@H]2C[C@@H](O)CN2C(=O)[C@@H](NC(=O)CCCc2ccc(COc3cc(F)c([C@@H]4c5[nH]c6ccccc6c5C[C@@H](C)N4CC(C)(C)F)c(F)c3)nc2)C(C)(C)C)cc1 [Example 141, (2S,4R)-1-((S)-2-(4-(6-((3,5-Difluoro-4-((1R,3R)-2-(2-fluoro-2-methylpropyl)-3-methyl-2,3,4,9-tetrahydro-1H-pyrido[3,4-b]indol-1-yl)phenoxy)methyl)pyridin-3-yl)butanamido)-3,3-dimethylbutanoyl)-4-hydroxy-N-(4-(4-methylthiazol-5-yl)benzyl)pyrrolidine-2-carboxamide]	•	900
Cc1ncsc1-c1ccc(CNC(=O)[C@@H]2C[C@@H](O)CN2C(=O)[C@@H](NC(=O)COCC(F)(F)COCCCOc2cc(F)c([C@@H]3c4[nH]c5ccccc5c4C[C@@H](C)N3CC(C)(C)F)c(F)c2)C(C)(C)C)cc1 [Example 125, (2S,4R)-1-((S)-2-(2-(3-(3-(3,5-Difluoro-4-((1R,3R)-2-(2-fluoro-2-methylpropyl)-3-methyl-2,3,4,9-tetrahydro-1H-pyrido[3,4-b]indol-1-yl)phenoxy)propoxy)-2,2-difluoropropoxy)acetamido)-3,3-dimethylbutanoyl)-4-hydroxy-N-(4-(4-methylthiazol-5-yl)benzyl)pyrrolidine-2-carboxamide]	••	700
Cc1ncsc1-c1ccc(CNC(=O)[C@@H]2C[C@@H](O)CN2C(=O)[C@@H](NC(=O)COCc2ccnc(COc3cc(F)c([C@@H]4c5[nH]c6ccccc6c5C[C@@H](C)N4CC(C)(C)F)c(F)c3)c2)C(C)(C)C)cc1 [Example 134, (2S,4R)-1-((S)-2-(2-((2-((3,5-Difluoro-4-((1R,3R)-2-(2-fluoro-2-methylpropyl)-3-methyl-2,3,4,9-tetrahydro-1H-pyrido[3,4-b]indol-1-yl)phenoxy)methyl)pyridin-4-yl)methoxy)acetamido)-3,3-dimethylbutanoyl)-4-hydroxy-N-(4-(4-methylthiazol-5-yl)benzyl)pyrrolidine-2-carboxamide]	•	500
Cc1ncsc1-c1ccc(CNC(=O)[C@@H]2C[C@@H](O)CN2C(=O)[C@@H](NC(=O)CCCCCCOCCCOc2cc(F)c([C@@H]3c4[nH]c5ccccc5c4C[C@@H](C)N3CC(C)(C)F)c(F)c2)C(C)(C)C)cc1 [Example 110, (2S,4R)-1-((S)-2-(7-(3-(3,5-difluoro-4-((1R,3R)-2-(2-fluoro-2-methylpropyl)-3-methyl-2,3,4,9-tetrahydro-1H-pyrido[3,4-b]indol-1-yl)phenoxy)propoxy)heptanamido)-3,3-dimethylbutanoyl)-4-hydroxy-N-(4-(4-methylthiazol-5-yl)benzyl)pyrrolidine-2-carboxamide]	••	1700
Cc1ncsc1-c1ccc(CNC(=O)[C@@H]2C[C@@H](O)CN2C(=O)[C@@H](NC(=O)COCCCCCN(CCOc2cc(F)c([C@@H]3c4[nH]c5ccccc5c4C[C@@H](C)N3CC(C)(C)F)c(F)c2)C(=O)OCc2ccccc2)C(C)(C)C)cc1 [Example 45, Benzyl (2-(3,5-difluoro-4-((1R,3R)-2-(2-fluoro-2-methylpropyl)-3-methyl-2,3,4,9-tetrahydro-1H-pyrido[3,4-b]indol-1-yl)phenoxy)ethyl)(5-(2-(((S)-1-((2S,4R)-4-hydroxy-2-((4-(4-methylthiazol-5-yl)benzyl)carbamoyl)pyrrolidin-1-yl)-3,3-dimethyl-1-oxobutan-2-yl)amino)-2-oxoethoxy)pentyl)carbamate]	••	12000
Cc1ncsc1-c1ccc(CNC(=O)[C@@H]2C[C@@H](O)CN2C(=O)[C@@H](NC(=O)COCCCCCCOc2ccc([C@@H]3c4[nH]c5ccccc5c4C[C@@H](C)N3CC(F)F)nc2)C(C)(C)C)cc1 [Example 8, (2S,4R)-1-((S)-2-(2-((6-((6-((1S,3R)-2-(2,2-Difluoroethyl)-3-methyl-2,3,4,9-tetrahydro-1H-pyrido[3,4-b]indol-1-yl)pyridin-3-yl)oxy)hexyl)oxy)acetamido)-3,3-dimethylbutanoyl)-4-hydroxy-N-(4-(4-methylthiazol-5-yl)benzyl)pyrrolidine-2-carboxamide]	••	9400
Cc1ncsc1-c1ccc(CNC(=O)[C@@H]2C[C@@H](O)CN2C(=O)[C@@H](NC(=O)CCCCCCCCCCOc2cc(F)c([C@@H]3c4[nH]c5ccccc5c4C[C@@H](C)N3CC(C)(C)F)c(F)c2)C(C)(C)C)cc1 [Example 32, (2S,4R)-1-((S)-2-(11-(3,5-Difluoro-4-((1R,3R)-2-(2-fluoro-2-methylpropyl)-3-methyl-2,3,4,9-tetrahydro-1H-pyrido[3,4-b]indol-1-yl)phenoxy)undecanamido)-3,3-dimethylbutanoyl)-4-hydroxy-N-(4-(4-methylthiazol-5-yl)benzyl)pyrrolidine-2-carboxamide]	•	13000
Cc1ncsc1-c1ccc(CNC(=O)[C@@H]2C[C@@H](O)CN2C(=O)[C@@H](NC(=O)CNCCC(F)(F)CCOc2cc(F)c([C@@H]3c4[nH]c5ccccc5c4C[C@@H](C)N3CC(C)(C)F)c(F)c2)C(C)(C)C)cc1 [Example 131, (2S,4R)-1-((S)-2-(2-((5-(3,5-Difluoro-4-((1R,3R)-2-(2-fluoro-2-methylpropyl)-3-methyl-2,3,4,9-tetrahydro-1H-pyrido[3,4-b]indol-1-yl)phenoxy)-3,3-difluoropentyl)amino)acetamido)-3,3-dimethylbutanoyl)-4-hydroxy-N-(4-(4-methylthiazol-5-yl)benzyl)pyrrolidine-2-carboxamide]	•	800
Cc1ncsc1-c1ccc([C@H](C)NC(=O)[C@@H]2C[C@@H](O)CN2C(=O)[C@@H](NC(=O)COCCCCCOCCOc2cc(F)c([C@@H]3c4[nH]c5ccccc5c4C[C@@H](C)N3CC(C)(C)F)c(F)c2)C(C)(C)C)cc1 [Example 157, (2S,4R)-1-((S)-2-(2-((5-(2-(3,5-Difluoro-4-((1R,3R)-2-(2-fluoro-2-methylpropyl)-3-methyl-2,3,4,9-tetrahydro-1H-pyrido[3,4-b]indol-1-yl)phenoxy)ethoxy)pentyl)oxy)acetamido)-3,3-dimethylbutanoyl)-4-hydroxy-N—((S)-1-(4-(4-methylthiazol-5-yl)phenyl)ethyl)pyrrolidine-2-carboxamide]	••	400
Cc1ncsc1-c1ccc([C@H](C)NC(=O)[C@@H]2C[C@@H](O)CN2C(=O)[C@@H](NC(=O)COCCCCCOc2cc(F)c([C@@H]3c4[nH]c5ccccc5c4C[C@@H](C)N3CC(C)(C)F)c(F)c2)C(C)(C)C)cc1 [Example 28, (2S,4R)-1-((S)-2-(2-((5-(3,5-Difluoro-4-((1R,3R)-2-(2-fluoro-2-methylpropyl)-3-methyl-2,3,4,9-tetrahydro-1H-pyrido[3,4-b]indol-1-yl)phenoxy)pentyl)oxy)acetamido)-3,3-dimethylbutanoyl)-4-hydroxy-N—((S)-1-(4-(4-methylthiazol-5-yl)phenyl)ethyl)pyrrolidine-2-carboxamide]	•	800
Cc1ncsc1-c1ccc(CNC(=O)[C@@H]2C[C@@H](O)CN2C(=O)[C@@H](NC(=O)COCCCCCOc2cc(F)c([C@@H]3c4[nH]c5ccccc5c4C[C@@H](C)N3CC(C)(C)F)c(F)c2)C(C)(C)C)cc1 [Example 18, (2S,4R)-1-((S)-2-(2-((5-(3,5-Difluoro-4-((1R,3R)-2-(2-fluoro-2-methylpropyl)-3-methyl-2,3,4,9-tetrahydro-1H-pyrido[3,4-b]indol-1-yl)phenoxy)pentyl)oxy)acetamido)-3,3-dimethylbutanoyl)-4-hydroxy-N-(4-(4-methylthiazol-5-yl)benzyl)pyrrolidine-2-carboxamide]	•	1000
Cc1ncsc1-c1ccc(CNC(=O)[C@@H]2C[C@@H](O)CN2C(=O)[C@@H](NC(=O)CNCc2ccc(COc3cc(F)c([C@@H]4c5[nH]c6ccccc6c5C[C@@H](C)N4CC(C)(C)F)c(F)c3)nc2)C(C)(C)C)cc1 [Example 146]	•	600
COC(=O)[C@@H](C)CN1[C@H](c2c(F)cc(OCCOCCOCCOCC(=O)N[C@H](C(=O)N3C[C@H](O)C[C@H]3C(=O)NCc3ccc(-c4scnc4C)cc3)C(C)(C)C)cc2F)c2[nH]c3ccccc3c2C[C@H]1C [Example 29]	••	2400
